Test results taken from patent US20090123501A1, “INHIBITION OF THE SH2-DOMAIN CONTAINING PROTEIN TYR-PHOSPHATASE, SHP-1, TO ENHANCE VACCINES” (Baylor College of Medicine, priority 2007, published 2009).

Assays:
SHP-1 mRNA = SHP-1 mRNA knock-down by quantitative RT-PCR in RAW cells; format: cell-based, murine; conditions: relative to no virus treatment
Description: Two mouse SHP-1 specific small hairpin RNAs (shRNA) sequences, 272 and 1149, (referred to by their nucleotide position from the start site of the coding sequence in Genbank mRNA Accession #BC012660) were designed and cloned into the adenoviral vector pAd-BLOCK-iT-DEST RNAi (Invitrogen, Carlsbad, Calif.) which provides U6 polymerase […] promoter-driven expression of the shRNA. The exemplary shRNA sequences Ad5-shRNA#1149 (SEQ ID NO:11) and Ad5-shRNA#272 (SEQ ID NO:12) are provided as follows: […] (SEQ ID NO:11) and […] (SEQ ID NO:12), wherein sequence underlined in the shRNA is the exemplary SHP-1 specific palandromic 21-mer. Adenovirus carrying the appropriate sequence were produced and expanded in HEK-293 cells (ATCC Manassas, Va.). These viruses were then plaque purified and the ability to knock-down SHP-1 mRNA was tested in RAW cells, a murine macrophage-like cell line, by quantitative RT-PCR and are shown as a percent of the no virus treatment (FIG. 2A and FIG. 2B). Adenovirus expressing green fluorescent protein was used as a negative control for viral treatment (FIG. 2C). […] The ability of this shRNA to knock down SHP-1 protein was examined by western blot (FIG. 2D). A large scale, high titer, preparation of Ad-shRNA#1149 was produced by the Viral Vector Core Laboratory at Baylor College of Medicine and used in subsequent studies.

D2SC/1 cells = test: Cell death of D2SC/1 cells after adenoviral infection; format: cell-based, murine; conditions: D2SC/1 cells, 40,000 viral particles/cell
BMDCs = test: DC survival by annexin V and propidium iodide flow cytometry; format: cell-based, C57BL/6 mice; conditions: CD11c purified BMDCs
Experimental: Primary bone marrow-derived dendritic cells (BMDCs) were prepared from wild type mice in the following manner: Bone marrow cells were flushed from the femurs and tibias of C57BL/6 mice and cultured for 6 days in RPMI media supplemented with 10% FBS, 10 ng/mL IL-4 and 10 ng/mL GMCSF along with antibiotics. On day 6, dendritic cells (DCs) were either purified by magnetic bead assisted cell sorting (MACS; Miltenyi Biotec, Auburn, Calif.) prior to adenoviral transduction, or used as unpurified bulk DCs that were then transduced with adenovirus.
BMDCs were prepared as described above and purified by CD11c (a marker for DC) MACS. Purified DCs were transduced with either Ad5-SHP1-shRNA or Ad5-scrambled-shRNA or left untreated and the virus was washed away following a two hour exposure. Cell survival was determined at 24 hours, 48 hours and 72 hours after infection by annexin V and propidium iodide (PI) staining and analyzed by flow cytometry. Annexin V binds to phosphatidylserine and is an early marker of apoptosis. PI is a DNA intercalating dye that can only enter cells when their membrane is integrity is disrupted and is a marker of cells late in the apoptotic process. Viral infection of DCs causes cells to undergo apoptosis where approximately 50% were dead or dying within the first 24 hours and 85% were dead or dying by 72 hours post-infection (FIG. 8 Ad5-scrambled-shRNA). […]

total splenocytes = test: T cell subsets in total splenocytes 7 days after DC vaccination, flow cytometry; format: in vivo, C57BL/6 mice; conditions: by viral treatment, peptides pooled
Experimental: To determine the effect of SHP-1 inhibition on the initiation of T cell responses, BMDCs were cultured and CD11c^+ MACS purified as described above. […] Following peptide loading DCs were left untreated or transduced with one of 3 different adenoviral vectors: 1) Ad5-SHP-1-shRNA; 2) Ad5-scrambled-shRNA; or 3) Ad5-CMV-empty, an adenovirus carrying a CMV promoter expression vector but no insert. […] Using all combinations of peptide and virus treatment yielded 9 experimental vaccines and one no vaccine control. Vaccines (2×10^6 DCs) were injected i.p. into wt C57BL/6 mice. Seven days following vaccination mice were sacrificed and total splenocytes were analyzed by multi-color flow cytometry for the expression of several T cell subsets. CD3^+ CD8^+IFNγ^+ cells were characterized as CTL effectors, CD3^+ CD4^+IFNγ^+ cells were characterized as Th1 helper T cells, and CD4^+ FOXP3^+ cells were characterized as Treg cells. Flow cytometry data were analyzed by one-way analysis of variance (ANOVA) and Tukey-Kramer HSD multiple comparisons test for percentage of cells falling within each population following treatment. Cells were stained with anti-CD3, anti-CD8 and anti IFNγ to differentiate CD8^+ effectors and CD4^+ Th1 T cell skewing or anti-CD4 and anti-FOXP3 to determine Tregs. To determine if there was a peptide specific effects between the 3 different tumor antigens, viral treatments were pooled for each peptide exposure. Data represent the averages 6 mice per peptide treatment group and 2 mice in the no treatment control group. No significant differences were seen between peptides in the induction of Tregs or CD8^+ effector cells.
(§1) Following peptide loading DCs were left untreated or transduced with one of 3 different adenoviral vectors: 1) Ad5-SHP-1-shRNA; 2) Ad5-scrambled-shRNA; or 3) Ad5-CMV-empty, an adenovirus carrying a CMV promoter expression vector but no insert. Vaccines were injected i.p. into wt C57BL/6 mice and T cell skewing analyzed 7 days later by flow cytometry from total splenocytes. Cells were stained with anti-CD3, anti-CD8 and anti IFNγ for effector and Th1 cells or anti-CD4 and anti-FOXP3 for Tregs. For the peptide specific analysis viral treatments were pooled for each peptide exposure. Data represent the averages 6 mice per peptide treatment and two mice in the no treatment control group. The green diamonds represent the mean and 95% confidence interval for each group from the ANOVA. The black line is the mean of means for the study and red asterisk (*) indicates significant differences (p<0.05 by Tukey-Kramer HSD multiple comparisons test).
as §1, with “the SHP-1” for “the peptide”, “each viral treatment.” for “each peptide exposure.”, “and 2” for “and two”, “ANOVA. […]” for “ANOVA. The black line is the mean of means for the study and red asterisk (*) indicates significant differences (p<0.05 by Tukey-Kramer HSD multiple comparisons test).”

[1] = 2×10^6 DCs i.p., day 7, vs no vaccine control

CACCGGAGCATGACACAGCAGAATACGAATATTCTGCTGTGTCATGCTCC (chemistry not given here) [Ad5-SHP-1-shRNA]
reduction in SHP-1 mRNA (SHP-1 mRNA): > 5 fold reduction | cell death (D2SC/1 cells): minimal cell death | cells dead or dying (BMDCs; by 72 hours post-infection): 55% | cells dead or dying (BMDCs; within the first 24 hours post-infection): 35% | proportion of CD4+ Th1 skewed T cells (CD3+CD4+IFNγ+) (total splenocytes; [1]): significantly higher proportion | proportion of CD8+ effector cells (CD3+CD8+IFNγ+) (total splenocytes; [1]): significantly higher proportion | percentage of Tregs (CD4+FOXP3+) (total splenocytes; day 7, vs empty viral control): significantly decreased the percentage of Tregs
